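Compound exposure: 48 hours, 5 concentrations, 96-well plates. At the GI50, growth is halved.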 The source made the active and inactive calls. No stated cut-off is given here; in the data, active = GI50 up to about 1.1 µM and inactive = higher.
Experiments:
Assay in all cases: NCI anticancer screen, dose series, 48 h
OVCAR-5 = system: OVCAR-5
NCI-H522 = system: NCI-H522
MOLT-4 = system: MOLT-4
EKVX = system: EKVX
M14 = system: M14
SK-MEL-28 = system: SK-MEL-28
OVCAR-4 = system: OVCAR-4
UACC-257 = system: UACC-257
Malme-3M = system: Malme-3M
K562 = system: K562
SN12C = system: SN12C
SNB-19 = system: SNB-19
SNB-75 = system: SNB-75
SW-620 = system: SW-620
HCT-116 = system: HCT-116
NCI-H23 = system: NCI-H23
HOP-62 = system: HOP-62
SF-539 = system: SF-539
SF-295 = system: SF-295
SF-268 = system: SF-268

Measured: GI50

N#CC1(C#N)C2C=CC(C3CCC=C32)C1(C#N)C#N (stereo not given)
inactive: OVCAR-5 > 10 µM | NCI-H522 2.96 µM | MOLT-4 2.14 µM | EKVX > 10 µM | M14 5.79 µM | SK-MEL-28 > 10 µM | OVCAR-4 > 10 µM | UACC-257 > 10 µM | Malme-3M 2.57 µM | K562 3.37 µM | SN12C > 10 µM | SNB-19 > 10 µM | SNB-75 > 10 µM | SW-620 1.77 µM | HCT-116 > 6.56 µM | NCI-H23 > 10 µM | HOP-62 > 10 µM | SF-539 > 10 µM | SF-295 > 10 µM | SF-268 > 10 µM

CN(C)c1n/c(=N/c2ccc(/N=c3\nc(N(C)C)ss3)cc2)ss1
inactive: OVCAR-5 > 100 µM | NCI-H522 11.5 µM | MOLT-4 8.49 µM | EKVX > 74.8 µM | M14 12.9 µM | SK-MEL-28 16.8 µM | OVCAR-4 20 µM | UACC-257 27.5 µM | Malme-3M 22.5 µM | K562 11.7 µM | SN12C 40.3 µM | SNB-19 32.4 µM | SNB-75 13.5 µM | SW-620 > 40.7 µM | HCT-116 15.1 µM | NCI-H23 12.4 µM | HOP-62 > 100 µM | SF-539 35.4 µM | SF-295 39.8 µM | SF-268 37.9 µM

COc1cc(C(=O)C/C(CCC(=O)Nc2ccc(Cl)cc2Cl)=N/NC(=O)C(=O)NN)ccc1O
inactive: OVCAR-5 > 100 µM | NCI-H522 > 100 µM | EKVX 97.7 µM | M14 > 100 µM | SK-MEL-28 > 100 µM | OVCAR-4 > 100 µM | UACC-257 > 100 µM | Malme-3M > 100 µM | K562 28.1 µM | SN12C > 100 µM | SNB-19 > 100 µM | SNB-75 > 100 µM | SW-620 > 100 µM | HCT-116 > 100 µM | NCI-H23 > 100 µM | HOP-62 > 100 µM | SF-539 > 100 µM | SF-295 > 100 µM | SF-268 > 100 µM

O=c1c(-c2ccccc2)c(SCCCN2CCCCC2)n(-c2ccccc2)c(=S)n1-c1ccccc1
inactive: OVCAR-5 > 100 µM | NCI-H522 22.4 µM | MOLT-4 18.2 µM | EKVX > 100 µM | SK-MEL-28 16.9 µM | OVCAR-4 24 µM | UACC-257 16.8 µM | Malme-3M 21.5 µM | K562 14.1 µM | SNB-75 15.3 µM | SW-620 19.6 µM | NCI-H23 19 µM | HOP-62 17.8 µM | SF-539 15.7 µM | SF-295 17.1 µM

c1ccc(CSC(SCc2ccccc2)c2cccc3ccccc23)cc1
inactive: OVCAR-5 > 10 µM | NCI-H522 7.87 µM | MOLT-4 > 10 µM | EKVX > 10 µM | M14 > 10 µM | SK-MEL-28 > 10 µM | OVCAR-4 > 10 µM | Malme-3M > 10 µM | K562 > 10 µM | SN12C > 10 µM | SNB-19 > 10 µM | SNB-75 > 10 µM | SW-620 > 10 µM | HCT-116 > 10 µM | NCI-H23 3.82 µM | HOP-62 > 10 µM | SF-539 > 10 µM | SF-295 8.85 µM | SF-268 > 10 µM

OCC1OC(n2ccc3cnccc32)CC1O (stereo not given)
inactive: OVCAR-5 > 100 µM | NCI-H522 > 100 µM | MOLT-4 > 100 µM | EKVX > 100 µM | M14 > 100 µM | SK-MEL-28 > 100 µM | OVCAR-4 > 100 µM | UACC-257 > 100 µM | Malme-3M > 100 µM | K562 > 100 µM | SN12C > 100 µM | SNB-19 > 100 µM | SNB-75 > 100 µM | SW-620 > 100 µM | HCT-116 > 100 µM | NCI-H23 > 100 µM | HOP-62 > 100 µM | SF-539 > 100 µM | SF-295 > 100 µM

COc1ccc(C2COc3cc(O)c(O)cc3C2)cc1 (stereo not given)
inactive: OVCAR-5 148 µM | NCI-H522 4.84 µM | MOLT-4 6.58 µM | EKVX 14.1 µM | SK-MEL-28 10.7 µM | OVCAR-4 12.1 µM | UACC-257 27.4 µM | Malme-3M 15.3 µM | K562 9.08 µM | SN12C 30.1 µM | SNB-19 24.8 µM | SNB-75 43.8 µM | SW-620 9.06 µM | HCT-116 11.3 µM | NCI-H23 17.7 µM | HOP-62 76.4 µM | SF-539 30.1 µM | SF-295 37.6 µM | SF-268 14.8 µM

CCOC(=O)Nc1ccc(S(=O)(=O)NCCCl)cc1.CCOC(=O)Nc1ccc(S(=O)(=O)NCCCl)cc1.O=C(O)c1ccc(/N=N/Cl)cc1O
inactive: OVCAR-5 > 100 µM | NCI-H522 > 100 µM | MOLT-4 > 100 µM | EKVX > 100 µM | M14 > 100 µM | SK-MEL-28 > 100 µM | OVCAR-4 > 100 µM | UACC-257 > 100 µM | Malme-3M > 100 µM | K562 > 100 µM | SN12C > 100 µM | SNB-75 > 100 µM | SW-620 > 100 µM | NCI-H23 > 100 µM | HOP-62 > 100 µM | SF-539 > 100 µM | SF-295 > 100 µM | SF-268 > 100 µM

NC1CCCCC1.O=P(O)(O)C(CSc1ccccc1)P(=O)(O)O
inactive: OVCAR-5 > 100 µM | NCI-H522 > 100 µM | MOLT-4 > 100 µM | EKVX > 100 µM | SK-MEL-28 > 100 µM | OVCAR-4 > 100 µM | UACC-257 > 100 µM | Malme-3M > 100 µM | K562 > 100 µM | SN12C > 100 µM | SNB-19 > 100 µM | SNB-75 > 100 µM | SW-620 > 100 µM | HCT-116 > 100 µM | NCI-H23 > 100 µM | HOP-62 > 100 µM | SF-539 > 100 µM | SF-295 > 100 µM | SF-268 > 100 µM

O=C(NC(COC(=O)C(Cc1ccccc1)NC(=O)c1ccccc1)Cc1ccccc1)c1ccccc1 (stereo not given)
inactive: OVCAR-5 > 50 µM | NCI-H522 > 50 µM | MOLT-4 > 50 µM | EKVX > 50 µM | M14 > 50 µM | SK-MEL-28 > 50 µM | OVCAR-4 > 50 µM | UACC-257 > 50 µM | Malme-3M > 50 µM | K562 > 50 µM | SNB-19 25.6 µM | SNB-75 > 50 µM | SW-620 > 50 µM | NCI-H23 > 50 µM | HOP-62 > 50 µM | SF-539 > 50 µM | SF-295 32.7 µM | SF-268 > 50 µM

CCCCC1=C(C(=O)N2CCOCC2)C2(OCCO2)C1=O
inactive: OVCAR-5 16.9 µM | NCI-H522 15.7 µM | MOLT-4 51.2 µM | EKVX 26.2 µM | M14 17.8 µM | SK-MEL-28 27.5 µM | OVCAR-4 23.1 µM | UACC-257 28.9 µM | Malme-3M 20.6 µM | SN12C 13.5 µM | SNB-19 14 µM | SNB-75 43.5 µM | SW-620 27.3 µM | HCT-116 18.5 µM | NCI-H23 18.3 µM | HOP-62 23.6 µM | SF-539 23 µM | SF-295 32.5 µM | SF-268 24 µM

— ChEMBL document CHEMBL1201862, “PubChem BioAssay data set” (2004)
